Earlier results in US20090054334A1, “Combinatorial improvement of bifunctional drug properties” (priority 2007, published 2009).

Assays:
[1] = in vivo
[2] = in vivo; remark: listed apart in the source

SMILES	bioavailability [1]	half life [1]	distribution into protected cellular compartments, in the blood [2]	blood-brain barrier crossing [1]
C=CC[C@@H]1/C=C(\C)C[C@H](C)C[C@H](OC)[C@H]2O[C@@](O)(C(=O)C(=O)N3CCCC[C@H]3C(=O)O[C@H](/C(C)=C/[C@@H]3CC[C@@H](O)[C@H](OC)C3)[C@H](C)[C@@H](O)CC1=O)[C@H](C)C[C@@H]2OC [FK506]	20%	11.3 h	72-98%	
CCC(C)(C)C(=O)C(=O)N1CCC[C@H]1C(=O)O [GPI-1485]	50%			crosses the blood-brain barrier
